These results are taken from paper PMC7565984, “A Phosphorylation-Induced Switch in the Nuclear Localization Sequence of the Intrinsically Disordered NUPR1 Hampers Binding to Importin” (Biomolecules, 2020).

Where a SMILES comes first, the peptide text is derived from it.

As a reminder, the Kd is a measure of binding affinity in units of concentration.

Data set [1] can be described thus: Translational diffusion by NMR DOSY (hydrodynamic properties). The format is physicochemical. Conditions: for D, translational diffusion coefficient: 283 K, pH 7.2, 50-mM deuterated Tris, 100% D2O, peptide 120 μM; for Rh, hydrodynamic radius from D: from the translational diffusion coefficient of dioxane (Rh = 2.12 Å) added to each sample. The method, then:
Concentrations of peptides in all DOSY experiments were 120 μM, and 128 scans, where the gradient strength was varied, were acquired for each curve. Translational self-diffusion measurements were performed with the pulsed gradient spin-echo sequence in the presence of 100% D2O. Experimental details have been described elsewhere. Briefly, the gradient strength was varied in sixteen linear steps between 2% and 95% of the total power of the gradient coil. The gradient strength was previously calibrated by using the value of the translational diffusion coefficient, D, for the residual proton water line in a sample containing 100% D2O in a 5-mm tube [34]. In our experiments for each peptide, the duration of the gradient was 2.25 ms, the time between the two pulse gradients in the pulse sequence was set to 200 ms, and the recovery delay between the bipolar gradients was set to 100 μs. The methyl groups with signals between 1.0 and 0.80 ppm were used for integration. Fitting of the exponential curves obtained from experimental data was carried out with KaleidaGraph (Synergy Software, Version 3.5), as described. A final concentration of 1% of dioxane, which was assumed to have a hydrodynamic radius Rh = 2.12 Å [34], was added to the solutions of each of the peptides to have a comparison for estimating their sizes.

In data set [2] the target is T1, ΔImpα3 (importin α3 without the IBB domain, residues 64-521) (Homo sapiens, UniProt O00629).
T1 construct: The His-tagged ΔImpα3 (residues 64-521) was obtained from BL21 (DE3) cells as described; His-tag; made in house; host or cells: Escherichia coli BL21 (DE3)
T1 sequence (O00629 64-521): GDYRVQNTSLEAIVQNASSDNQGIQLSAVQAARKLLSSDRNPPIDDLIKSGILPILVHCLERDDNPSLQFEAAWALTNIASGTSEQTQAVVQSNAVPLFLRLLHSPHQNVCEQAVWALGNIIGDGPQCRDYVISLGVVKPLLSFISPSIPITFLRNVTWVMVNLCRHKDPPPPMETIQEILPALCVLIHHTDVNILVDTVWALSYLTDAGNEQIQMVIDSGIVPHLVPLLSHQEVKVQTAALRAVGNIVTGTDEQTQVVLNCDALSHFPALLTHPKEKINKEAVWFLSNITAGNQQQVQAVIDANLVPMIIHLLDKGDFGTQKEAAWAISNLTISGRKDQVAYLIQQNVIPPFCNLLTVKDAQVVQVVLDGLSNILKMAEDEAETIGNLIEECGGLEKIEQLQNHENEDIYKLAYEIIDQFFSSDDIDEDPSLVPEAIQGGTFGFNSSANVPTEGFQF
Put plainly: ITC binding of NLS-NUPR1 peptides / NUPR1 to ΔImpα3. The following applies: ITC, 298 K; for ΔH (binding enthalpy), ΔImpα3: absolute error 0.5 kcal/mol; for −TΔS (entropic contribution), ΔImpα3: calculated from Kd and ΔH, absolute error 0.7 kcal/mol; for n (stoichiometry; fraction of binding-competent protein), ΔImpα3: absolute error 0.2, value in parenthesis = fixed in the fit due to low affinity. The method, then:
(§1) The experimental set-up and data processing of ITC experiments has been described previously. Calorimetric titrations, performed in an Auto-iTC200 calorimeter (MicroCal, Malvern-Panalytical, Malvern, UK) consisted of series of 19 2-μL injections, with 150 s time spacing and a 750-rpm stirring speed. Impα3 or ΔImpα3 (at 10–20 μM) was loaded into the calorimetric cell and NLS-NUPR1 peptides in the syringe (150–300 μM); all solutions were prepared in buffer Tris 50 mM, pH 8. […] The binding affinity (association constant) and the binding enthalpy were estimated through a least-squares nonlinear regression data analysis, from which the Gibbs energy and the entropic contribution to the binding were calculated using well-known thermodynamic relationships. Since the binding stoichiometry is constrained by the model, the parameter n provides a fraction of the active or binding competent protein. Experiments for each peptide and importin species were performed, at least, in duplicates.

Data set [3] concerns the target T2, human importin α3 (Impα3) (Homo sapiens, UniProt O00629).
T2 construct: although the IBB region maintains its independence within the whole Impα3 in terms of conformation; His-tag (N); made in house; host or cells: Escherichia coli BL21 (DE3)
T2 sequence (O00629 1-521): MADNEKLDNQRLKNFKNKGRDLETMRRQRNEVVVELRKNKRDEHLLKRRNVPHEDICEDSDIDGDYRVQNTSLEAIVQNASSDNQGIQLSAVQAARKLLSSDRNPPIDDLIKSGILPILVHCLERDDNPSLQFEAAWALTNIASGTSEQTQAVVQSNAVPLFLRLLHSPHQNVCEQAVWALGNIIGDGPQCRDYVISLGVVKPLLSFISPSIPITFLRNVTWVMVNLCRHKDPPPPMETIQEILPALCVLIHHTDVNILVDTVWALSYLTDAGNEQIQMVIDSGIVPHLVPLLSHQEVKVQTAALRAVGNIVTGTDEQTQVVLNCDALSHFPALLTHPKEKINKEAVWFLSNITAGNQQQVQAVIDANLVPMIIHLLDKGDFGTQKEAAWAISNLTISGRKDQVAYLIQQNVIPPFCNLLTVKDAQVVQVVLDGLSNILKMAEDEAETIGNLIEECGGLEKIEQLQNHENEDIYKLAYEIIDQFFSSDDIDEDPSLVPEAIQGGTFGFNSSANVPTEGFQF
Put plainly: ITC binding of NLS-NUPR1 peptides / NUPR1 to Impα3. The following applies: for ΔH (binding enthalpy), Impα3 / Kd / −TΔS (entropic contribution), Impα3 / n (stoichiometry; fraction of binding-competent protein), Impα3: ITC, 298 K; for ΔH (binding enthalpy), Impα3 / Kd / −TΔS (entropic contribution), Impα3: Tris 50 mM pH 8; for ΔH (binding enthalpy), Impα3: absolute error 0.5 kcal/mol; for Kd: importin 10–20 μM in cell, peptide 150–300 μM in syringe, 1:1 model, at least duplicates, relative error 30%, read-out: Kd (dissociation constant), Impα3; for −TΔS (entropic contribution), Impα3: calculated from Kd and ΔH, absolute error 0.7 kcal/mol; for n (stoichiometry; fraction of binding-competent protein), Impα3: absolute error 0.2, value in parenthesis = fixed in the fit due to low affinity; for Decrease of the affinity for Impα3 relative to wt peptide: from ITC Kd values. The method, then: as §1

`CC(=O)N[C@@H](Cc1ccc(O)cc1)C(=O)N[C@H](C(=O)N[C@@H](CC(N)=O)C(=O)N[C@@H](CCCNC(=N)N)C(=O)N1CCC[C@H]1C(=O)N[C@@H](CO)C(=O)N1CCC[C@H]1C(=O)NCC(=O)NCC(=O)N[C@@H](Cc1c[nH]cn1)C(=O)N[C@@H](CCC(=O)O)C(=O)N[C@@H](CCCNC(=N)N)C(=O)N[C@@H](C)C(=O)N[C@@H](CC(C)C)C(=O)N[C@H](C(=O)N[C@@H](CCC(=O)O)C(=O)N[C@@H](C)C(=O)N[C@@H](CC(C)C)C(=O)N[C@@H](CCC(N)=O)C(=O)N[C@@H](CC(N)=O)C(=O)N[C@@H](CO)C(=O)N[C@@H](CCC(=O)O)C(N)=O)C(C)C)[C@@H](C)O` [K65AT68EK69A] (Ac-YTNRPSPGGHERALVEALQNSE-NH2): in data set [1], the “D, translational diffusion coefficient” value amounted to 2.4 ± 0.2 cm^2 s^−1 × 10^6 and the “Rh, hydrodynamic radius from D” value is given as 9 ± 2 Å. Moreover, in data set [2] (Tris 50 mM pH 8), the “ΔH (binding enthalpy), ΔImpα3” value is -28.5 kcal/mol and the “−TΔS (entropic contribution), ΔImpα3” value is reported as 22.2 kcal/mol. Also, in data set [3], the “ΔH (binding enthalpy), Impα3” value was -16.3 kcal/mol and the Kd worked out at 27 µM.
Regarding `CC(=O)N[C@@H](Cc1ccc(O)cc1)C(=O)N[C@H](C(=O)N[C@@H](CC(N)=O)C(=O)N[C@@H](CCCNC(=N)N)C(=O)N1CCC[C@H]1C(=O)N[C@@H](CO)C(=O)N1CCC[C@H]1C(=O)NCC(=O)NCC(=O)N[C@@H](Cc1c[nH]cn1)C(=O)N[C@@H](CCC(=O)O)C(=O)N[C@@H](CCCNC(=N)N)C(=O)N[C@@H](C)C(=O)N[C@@H](CC(C)C)C(=O)N[C@H](C(=O)N[C@@H](CCC(=O)O)C(=O)N[C@@H](CCCCN)C(=O)N[C@@H](CC(C)C)C(=O)N[C@@H](CCC(N)=O)C(=O)N[C@@H](CC(N)=O)C(=O)N[C@@H](CO)C(=O)N[C@@H](CCC(=O)O)C(N)=O)C(C)C)[C@@H](C)O` [K65AT68E] (Ac-YTNRPSPGGHERALVEKLQNSE-NH2), in data set [1], the “D, translational diffusion coefficient” value amounted to 1.76 ± 0.06 cm^2 s^−1 × 10^6 and the “Rh, hydrodynamic radius from D” value was determined as 12 ± 1 Å. Also, in data set [2] (Tris 50 mM pH 8), the “ΔH (binding enthalpy), ΔImpα3” value was -17.9 kcal/mol and the “−TΔS (entropic contribution), ΔImpα3” value is 11.3 kcal/mol. Further, in data set [3], the “ΔH (binding enthalpy), Impα3” value was -7.8 kcal/mol and the “−TΔS (entropic contribution), Impα3” value is listed as 1.4 kcal/mol.
`CC(=O)N[C@@H](Cc1ccc(O)cc1)C(=O)N[C@H](C(=O)N[C@@H](CC(N)=O)C(=O)N[C@@H](CCCNC(=N)N)C(=O)N1CCC[C@H]1C(=O)N[C@@H](CO)C(=O)N1CCC[C@H]1C(=O)NCC(=O)NCC(=O)N[C@@H](Cc1c[nH]cn1)C(=O)N[C@@H](CCC(=O)O)C(=O)N[C@@H](CCCNC(=N)N)C(=O)N[C@@H](C)C(=O)N[C@@H](CC(C)C)C(=O)N[C@H](C(=O)N[C@H](C(=O)N[C@@H](CCCCN)C(=O)N[C@@H](CC(C)C)C(=O)N[C@@H](CCC(N)=O)C(=O)N[C@@H](CC(N)=O)C(=O)N[C@@H](CO)C(=O)N[C@@H](CCC(=O)O)C(N)=O)[C@@H](C)O)C(C)C)[C@@H](C)O` [K65A] (Ac-YTNRPSPGGHERALVTKLQNSE-NH2): in data set [1], the “D, translational diffusion coefficient” value was determined as 1.94 ± 0.08 cm^2 s^−1 × 10^6 and the “Rh, hydrodynamic radius from D” value came to 11 ± 1 Å. In data set [2] (Tris 50 mM pH 8), the “ΔH (binding enthalpy), ΔImpα3” value was -10.2 kcal/mol and the “−TΔS (entropic contribution), ΔImpα3” value was 2.6 kcal/mol. Also, the “n (stoichiometry; fraction of binding-competent protein), ΔImpα3” value in data set [2] was 1.4. For the same compound, in data set [3], the “ΔH (binding enthalpy), Impα3” value is -2.8 kcal/mol; the “−TΔS (entropic contribution), Impα3” value was -4.6 kcal/mol; the “n (stoichiometry; fraction of binding-competent protein), Impα3” value is listed as 1.4; the “Decrease of the affinity for Impα3 relative to wt peptide” value was “two-fold”.
In the case of `CC(=O)N[C@@H](Cc1ccc(O)cc1)C(=O)N[C@H](C(=O)N[C@@H](CC(N)=O)C(=O)N[C@@H](CCCNC(=N)N)C(=O)N1CCC[C@H]1C(=O)N[C@@H](CO)C(=O)N1CCC[C@H]1C(=O)NCC(=O)NCC(=O)N[C@@H](Cc1c[nH]cn1)C(=O)N[C@@H](CCC(=O)O)C(=O)N[C@@H](CCCNC(=N)N)C(=O)N[C@@H](CCCCN)C(=O)N[C@@H](CC(C)C)C(=O)N[C@H](C(=O)N[C@H](C(=O)N[C@@H](C)C(=O)N[C@@H](CC(C)C)C(=O)N[C@@H](CCC(N)=O)C(=O)N[C@@H](CC(N)=O)C(=O)N[C@@H](CO)C(=O)N[C@@H](CCC(=O)O)C(N)=O)[C@@H](C)O)C(C)C)[C@@H](C)O` [K69A] (Ac-YTNRPSPGGHERKLVTALQNSE-NH2), in data set [1], the “D, translational diffusion coefficient” value was found to be 1.79 ± 0.06 cm^2 s^−1 × 10^6 and the “Rh, hydrodynamic radius from D” value worked out at 12 ± 2 Å. In data set [2] (Tris 50 mM pH 8), the “ΔH (binding enthalpy), ΔImpα3” value was -21.3 kcal/mol and the “−TΔS (entropic contribution), ΔImpα3” value is recorded as 14.3 kcal/mol. Besides, the “n (stoichiometry; fraction of binding-competent protein), ΔImpα3” value in data set [2] is listed as 1.4. For the same compound, in data set [3], the “ΔH (binding enthalpy), Impα3” value was -10.8 kcal/mol; the “−TΔS (entropic contribution), Impα3” value is on record as 4.0 kcal/mol; the “n (stoichiometry; fraction of binding-competent protein), Impα3” value was 1.3; the “Decrease of the affinity for Impα3 relative to wt peptide” value is recorded as “six-fold”.
Turning to `CC(=O)N[C@@H](Cc1ccc(O)cc1)C(=O)N[C@H](C(=O)N[C@@H](CC(N)=O)C(=O)N[C@@H](CCCNC(=N)N)C(=O)N1CCC[C@H]1C(=O)N[C@@H](CO)C(=O)N1CCC[C@H]1C(=O)NCC(=O)NCC(=O)N[C@@H](Cc1c[nH]cn1)C(=O)N[C@@H](CCC(=O)O)C(=O)N[C@@H](CCCNC(=N)N)C(=O)N[C@@H](CCCCN)C(=O)N[C@@H](CC(C)C)C(=O)N[C@H](C(=O)N[C@@H](CCC(=O)O)C(=O)N[C@@H](C)C(=O)N[C@@H](CC(C)C)C(=O)N[C@@H](CCC(N)=O)C(=O)N[C@@H](CC(N)=O)C(=O)N[C@@H](CO)C(=O)N[C@@H](CCC(=O)O)C(N)=O)C(C)C)[C@@H](C)O` [T68EK69A] (Ac-YTNRPSPGGHERKLVEALQNSE-NH2), in data set [1], the “D, translational diffusion coefficient” value amounted to 1.87 ± 0.08 cm^2 s^−1 × 10^6 and the “Rh, hydrodynamic radius from D” value is 11 ± 1 Å. In addition, in data set [2] (Tris 50 mM pH 8), the “ΔH (binding enthalpy), ΔImpα3” value is -21.2 kcal/mol and the “−TΔS (entropic contribution), ΔImpα3” value was 14.7 kcal/mol. Moreover, the Kd in data set [2] (Tris 50 mM pH 8, importin 10–20 μM in cell, peptide 150–300 μM in syringe, 1:1 model, at least duplicates, relative error 30%, read-out: Kd (dissociation constant), ΔImpα3) stood at 17 µM. In data set [3], the “ΔH (binding enthalpy), Impα3” value is -7.5 kcal/mol; the “−TΔS (entropic contribution), Impα3” value was 1.0 kcal/mol; the Kd worked out at 17 µM.
